Common to all, as to assay type: functional, cell-based
In one test the test system is KB. The test can be described thus: Cytotoxicity against human KB cells assessed as growth inhibition after 48 hrs by MTT assay. (In general: Tetrazolium assays rely on reduction of a dye to a coloured formazan, in cell work by metabolically active cells.)
The nature of test [1]: Cytotoxicity against human SGC7901 cells assessed as growth inhibition after 48 hrs by MTT assay. Conditions: SGC-7901, 48 h.
Test [2] is described as follows: Cytotoxicity against human HT1080 cells assessed as growth inhibition after 48 hrs by MTT assay. Conditions: HT-1080, 48 h.

Our source for the IC50 values is ChEMBL document CHEMBL3217717, “Synthesis and antiproliferative activity of novel erythromycin derivatives” (Medchemcomm, 2010).

Some results are limits rather than exact numbers.

What is called IC50 is the concentration that inhibits the measured activity by half.

As for `CC[C@H]1OC(=O)[C@H](C)[C@@H](O)[C@H](C)[C@@H](O[C@@H]2O[C@H](C)C[C@H](N(C)C(=O)CN(C)[C@H]3C[C@@H](C)O[C@@H](O[C@@H]4[C@@H](C)[C@H](O[C@H]5C[C@@](C)(OC)[C@@H](O)[C@H](C)O5)[C@@H](C)C(=O)O[C@H](CC)[C@@](C)(O)[C@H](O)[C@@H](C)/C(=N\OCOCCOC)[C@H](C)C[C@@]4(C)O)[C@@H]3O)[C@H]2O)[C@](C)(OC)C[C@@H](C)C(=O)[C@H](C)[C@@H](O)[C@]1(C)O`, the IC50 (in the test on KB; in test [1]; in test [2]) was greater than 100 µM throughout.

As to `CC[C@H]1OC(=O)[C@H](C)[C@@H](O[C@H]2C[C@@](C)(OC)[C@@H](O)[C@H](C)O2)[C@H](C)[C@@H](O[C@@H]2O[C@H](C)C[C@H](N(C)CCN(C)[C@H]3C[C@@H](C)O[C@@H](O[C@@H]4[C@@H](C)[C@H](O[C@H]5C[C@@](C)(OC)[C@@H](O)[C@H](C)O5)[C@@H](C)C(=O)O[C@H](CC)[C@@](C)(O)[C@H](O)[C@@H](C)/C(=N\OCc5cc(OC)c(OC)c(OC)c5)[C@H](C)C[C@@]4(C)O)[C@@H]3O)[C@H]2O)[C@](C)(OC)C[C@@H](C)C(=O)[C@H](C)[C@@H](O)[C@]1(C)O`, the half-inhibitory concentration (IC50) in the test with KB was found to be 30.2 µM; in test [1], 17.4 µM; in test [2], 41.5 µM.

Regarding `CC[C@H]1OC(=O)[C@H](C)[C@@H](O[C@H]2C[C@@](C)(OC)[C@@H](O)[C@H](C)O2)[C@H](C)[C@@H](O[C@@H]2O[C@H](C)C[C@H](N(C)CCN(C)[C@H]3C[C@@H](C)O[C@@H](O[C@@H]4[C@@H](C)[C@H](O[C@H]5C[C@@](C)(OC)[C@@H](O)[C@H](C)O5)[C@@H](C)C(=O)O[C@H](CC)[C@@](C)(O)[C@H](O)[C@@H](C)C(=O)[C@H](C)C[C@@]4(C)O)[C@@H]3O)[C@H]2O)[C@](C)(O)C[C@@H](C)C(=O)[C@H](C)[C@@H](O)[C@]1(C)O`, the IC50 is 37.3 µM in the test on KB, 18.3 µM in test [1] and greater than 100 µM in test [2].

On to `CC[C@H]1OC(=O)[C@H](C)[C@@H](O[C@H]2C[C@@](C)(OC)[C@@H](O)[C@H](C)O2)[C@H](C)[C@@H](O[C@@H]2O[C@H](C)C[C@H](N(C)CCN(C)[C@H]3C[C@@H](C)O[C@@H](O[C@@H]4[C@@H](C)[C@H](O[C@H]5C[C@@](C)(OC)[C@@H](O)[C@H](C)O5)[C@@H](C)C(=O)O[C@H](CC)[C@@](C)(O)[C@H](O)[C@@H](C)/C(=N\OCOCCOC)[C@H](C)C[C@@]4(C)O)[C@@H]3O)[C@H]2O)[C@](C)(O)C[C@@H](C)[C@H](O)[C@H](C)[C@@H](O)[C@]1(C)O`, for which the 50% inhibitory concentration (IC50) was 37.8 µM with KB, 45.2 µM in test [1] and 21.9 µM in test [2].

In the case of `CCCCCCCCO/N=C1/[C@H](C)C[C@@](C)(O)[C@H](O[C@@H]2O[C@H](C)C[C@H](N(C)CCN(C)[C@H]3C[C@@H](C)O[C@@H](O[C@@H]4[C@@H](C)[C@H](O[C@H]5C[C@@](C)(OC)[C@@H](O)[C@H](C)O5)[C@@H](C)C(=O)O[C@H](CC)[C@@](C)(O)[C@H](O)[C@@H](C)/C(=N\OCCCCCCCC)[C@H](C)C[C@@]4(C)O)[C@@H]3O)[C@H]2O)[C@@H](C)[C@H](O[C@H]2C[C@@](C)(OC)[C@@H](O)[C@H](C)O2)[C@@H](C)C(=O)O[C@H](CC)[C@@](C)(O)[C@H](O)[C@H]1C`, the IC50 (in the test with KB; in test [1]; in test [2]) was greater than 100 µM in each case.

As for `CC[C@H]1OC(=O)[C@H](C)[C@@H](O)[C@H](C)[C@@H](O[C@@H]2O[C@H](C)C[C@H](N(C)CCN(C)[C@H]3C[C@@H](C)O[C@@H](O[C@@H]4[C@@H](C)[C@H](O)[C@@H](C)C(=O)O[C@H](CC)[C@@](C)(O)[C@H](O)[C@@H](C)C(=O)[C@H](C)C[C@@]4(C)OC)[C@@H]3O)[C@H]2O)[C@](C)(OC)C[C@@H](C)C(=O)[C@H](C)[C@@H](O)[C@]1(C)O`, the half-inhibitory concentration (IC50) (with KB; in test [1]; in test [2]) was greater than 100 µM throughout.

Regarding `CC[C@H]1OC(=O)[C@H](C)[C@@H](O[C@H]2C[C@@](C)(OC)[C@@H](O)[C@H](C)O2)[C@H](C)[C@@H](O[C@@H]2O[C@H](C)C[C@H](N(C)C(=O)CN(C)[C@H]3C[C@@H](C)O[C@@H](O[C@@H]4[C@@H](C)[C@H](O[C@H]5C[C@@](C)(OC)[C@@H](O)[C@H](C)O5)[C@@H](C)C(=O)O[C@H](CC)[C@@](C)(O)[C@H](O)[C@@H](C)C(=O)[C@H](C)C[C@@]4(C)O)[C@@H]3O)[C@H]2O)[C@](C)(OC)C[C@@H](C)C(=O)[C@H](C)[C@@H](O)[C@]1(C)O`, the IC50 is 27.6 µM with KB, 65.9 µM in test [1] and greater than 100 µM in test [2].

Turning to `CC[C@H]1OC(=O)[C@H](C)[C@@H](O[C@H]2C[C@@](C)(OC)[C@@H](O)[C@H](C)O2)[C@H](C)[C@@H](O[C@@H]2O[C@H](C)C[C@H](N(C)CCN(C)[C@H]3C[C@@H](C)O[C@@H](O[C@@H]4[C@@H](C)[C@H](O[C@H]5C[C@@](C)(OC)[C@@H](O)[C@H](C)O5)[C@@H](C)C(=O)O[C@H](CC)[C@@](C)(O)[C@H](O)[C@@H](C)/C(=N\OCc5ccccc5)[C@H](C)C[C@@]4(C)OC)[C@@H]3O)[C@H]2O)[C@](C)(OC)C[C@@H](C)/C(=N/OCc2ccccc2)[C@H](C)[C@@H](O)[C@]1(C)O`, the half-inhibitory concentration (IC50) was 7.6 µM in the test with KB, 26.5 µM in test [1] and 9.5 µM in test [2].

Consider `CC[C@H]1OC(=O)[C@H](C)[C@@H](O)[C@H](C)[C@@H](O[C@@H]2O[C@H](C)C[C@H](N(C)CCN(C)[C@H]3C[C@@H](C)O[C@@H](O[C@@H]4[C@@H](C)[C@H](O)[C@@H](C)C(=O)O[C@H](CC)[C@@](C)(O)[C@H](O)[C@@H](C)/C(=N\OCOCCOC)[C@H](C)C[C@@]4(C)O)[C@@H]3O)[C@H]2O)[C@](C)(O)C[C@@H](C)/C(=N/OCOCCOC)[C@H](C)[C@@H](O)[C@]1(C)O`, for which the IC50 (with KB; in test [1]; in test [2]) was greater than 100 µM throughout.

`CC[C@H]1OC(=O)[C@H](C)[C@@H](O[C@H]2C[C@@](C)(OC)[C@@H](O)[C@H](C)O2)[C@H](C)[C@@H](O[C@@H]2O[C@H](C)C[C@H](N(C)CCN(C)[C@H]3C[C@@H](C)O[C@@H](O[C@@H]4[C@@H](C)[C@H](O[C@H]5C[C@@](C)(OC)[C@@H](O)[C@H](C)O5)[C@@H](C)C(=O)O[C@H](CC)[C@@](C)(O)[C@H](O)[C@@H](C)C(=O)[C@H](C)C[C@@]4(C)OC)[C@@H]3O)[C@H]2O)[C@](C)(O)C[C@@H](C)[C@H](O)[C@H](C)[C@@H](O)[C@]1(C)O`: the figures for the IC50 (in the test with KB; in test [1]; in test [2]) were 28.5 µM, 39.8 µM and 20.4 µM, respectively.

Take `CCCCCO/N=C1/[C@H](C)C[C@@](C)(OC)[C@H](O[C@@H]2O[C@H](C)C[C@H](N(C)CCN(C)[C@H]3C[C@@H](C)O[C@@H](O[C@@H]4[C@@H](C)[C@H](O[C@H]5C[C@@](C)(OC)[C@@H](O)[C@H](C)O5)[C@@H](C)C(=O)O[C@H](CC)[C@@](C)(O)[C@H](O)[C@@H](C)/C(=N\OCCCCC)[C@H](C)C[C@@]4(C)OC)[C@@H]3O)[C@H]2O)[C@@H](C)[C@H](O[C@H]2C[C@@](C)(OC)[C@@H](O)[C@H](C)O2)[C@@H](C)C(=O)O[C@H](CC)[C@@](C)(O)[C@H](O)[C@H]1C`: the half-maximal inhibitory concentration (IC50) in the test on KB was greater than 100 µM; in test [1], 30.8 µM; in test [2], 54.1 µM.

With `CC[C@H]1OC(=O)[C@H](C)[C@@H](O[C@H]2C[C@@](C)(OC)[C@@H](O)[C@H](C)O2)[C@H](C)[C@@H](O[C@@H]2O[C@H](C)C[C@H](N(C)CCN(C)[C@H]3C[C@@H](C)O[C@@H](O[C@@H]4[C@@H](C)[C@H](O[C@H]5C[C@@](C)(OC)[C@@H](O)[C@H](C)O5)[C@@H](C)C(=O)O[C@H](CC)[C@@](C)(O)[C@H](O)[C@@H](C)[C@@H](O)[C@H](C)C[C@@]4(C)O)[C@@H]3O)[C@H]2O)[C@](C)(O)C[C@@H](C)[C@H](O)[C@H](C)[C@@H](O)[C@]1(C)O`, the IC50 in the test with KB was 44.9 µM; in test [1], 61.6 µM; in test [2], greater than 100 µM.

On to `CC[C@H]1OC(=O)[C@H](C)[C@@H](O)[C@H](C)[C@@H](O[C@@H]2O[C@H](C)C[C@H](N(C)CCN(C)[C@H]3C[C@@H](C)O[C@@H](O[C@@H]4[C@@H](C)[C@H](O[C@H]5C[C@@](C)(OC)[C@@H](O)[C@H](C)O5)[C@@H](C)C(=O)O[C@H](CC)[C@@](C)(O)[C@H](O)[C@@H](C)/C(=N\O)[C@H](C)C[C@@]4(C)OC)[C@@H]3O)[C@H]2O)[C@](C)(OC)C[C@@H](C)/C(=N/O)[C@H](C)[C@@H](O)[C@]1(C)O`, for which the 50% inhibitory concentration (IC50) worked out at 38.2 µM in the test on KB, 12.7 µM in test [1] and 42.8 µM in test [2].

Regarding `CC[C@H]1OC(=O)[C@H](C)[C@@H](O[C@H]2C[C@@](C)(OC)[C@@H](O)[C@H](C)O2)[C@H](C)[C@@H](O[C@@H]2O[C@H](C)C[C@H](N(C)CC(=O)N(C)[C@H]3C[C@@H](C)O[C@@H](O[C@@H]4[C@@H](C)[C@H](O)[C@@H](C)C(=O)O[C@H](CC)[C@@](C)(O)[C@H](O)[C@@H](C)/C(=N\OCOCCOC)[C@H](C)C[C@@]4(C)O)[C@@H]3O)[C@H]2O)[C@](C)(OC)C[C@@H](C)C(=O)[C@H](C)[C@@H](O)[C@]1(C)O`, the IC50 (in the test with KB; in test [1]; in test [2]) was greater than 100 µM in each case.

Regarding `CC[C@H]1OC(=O)[C@H](C)[C@@H](O[C@H]2C[C@@](C)(OC)[C@@H](O)[C@H](C)O2)[C@H](C)[C@@H](O[C@@H]2O[C@H](C)C[C@H](N(C)CCN(C)[C@H]3C[C@@H](C)O[C@@H](O[C@@H]4[C@@H](C)[C@H](O[C@H]5C[C@@](C)(OC)[C@@H](O)[C@H](C)O5)[C@@H](C)C(=O)O[C@H](CC)[C@@](C)(O)[C@H](O)[C@@H](C)/C(=N\OCc5cc(OC)c(OC)c(OC)c5)[C@H](C)C[C@@]4(C)O)[C@@H]3O)[C@H]2O)[C@](C)(O)C[C@@H](C)/C(=N/OCc2cc(OC)c(OC)c(OC)c2)[C@H](C)[C@@H](O)[C@]1(C)O`, the IC50 is 8.3 µM in the test on KB, 28.4 µM in test [1] and 3.9 µM in test [2].
